Experimental data as given in patent publication US9657351B2, “MRNA-based gene expression for personalizing patient cancer therapy with an MDM2 antagonist” (Hoffmann-La Roche Inc., priority 2013, dated 2017).

Experiments:
Assay in all cases: COMPOUND A In Vitro Assay
Assay type in all cases: cell-based
[1] = system: 647-V; details: Homo sapiens, Urinary tract, urothelium, TP53 Mutant
How it was run: (§1)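 HTS, human cancer cell line panel (CELLO/CACTEL), MDM2 antagonist COMPOUND A (RG7112). Readout: IC50. Sensitive: IC50<=1; resistant: IC50>=10.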

[2] = system: BFTC-905; details: Homo sapiens, Urinary, bladder, TP53 Mutant
How it was run: as §1

[3] = system: CEM/C2; details: Homo sapiens, Lymphocyte T, peripheral blood, TP53 Mutant
How it was run: as §1

[4] = system: CMK-11-5; details: Homo sapiens, Lymphocyte, TP53 Mutant
How it was run: as §1

[5] = system: EGI-1; details: Homo sapiens, Bile duct, TP53 Mutant
How it was run: as §1

[6] = system: HCC1143; details: Homo sapiens, Breast, mammary gland, TP53 Mutant
How it was run: as §1

[7] = system: HCT-8; details: Homo sapiens, Intestine, large, colon, TP53 Wild type
How it was run: as §1

[8] = system: HCT116; details: Homo sapiens, HCT-116, Intestine, large, colon, TP53 Wild type
How it was run: as §1

[9] = system: HEC-151; details: Homo sapiens, Uterus, TP53 Mutant
How it was run: as §1

[10] = system: HPAC; details: Homo sapiens, Pancreas, TP53 Mutant
How it was run: as §1

[11] = system: HepG2; details: Homo sapiens
How it was run: as §1

[12] = system: Hs 766T; details: Homo sapiens, Hs766T, Pancreas, TP53 Mutant
How it was run: as §1

[13] = system: J82; details: Homo sapiens, Urinary, bladder, TP53 Mutant
How it was run: as §1

[14] = system: K-562; details: Homo sapiens, K562, Bone marrow, TP53 Mutant
How it was run: as §1

[15] = system: KMS-11; details: Homo sapiens, Lymphocyte, TP53 Wild type
How it was run: as §1

[16] = system: KMS-12-PE; details: Homo sapiens, Plasma, TP53 Mutant
How it was run: as §1

[17] = system: KMS-28BM; details: Homo sapiens, Lymphocyte, TP53 Mutant
How it was run: as §1

[18] = system: LP-1; details: Homo sapiens, Lymphocyte, peripheral blood, TP53 Mutant
How it was run: as §1

[19] = system: MC/CAR; details: Homo sapiens
How it was run: as §1

[20] = system: MCF10DCIS•com; details: Homo sapiens, Breast, TP53 Wild type
How it was run: as §1

[21] = system: MDA-MB-157; details: Homo sapiens, Breast, mammary gland, TP53 Mutant
How it was run: as §1

[22] = system: MIA PaCa-2; details: Homo sapiens, Pancreas, TP53 Mutant
How it was run: as §1

[23] = system: NCI-H1666; details: Homo sapiens, Lung, TP53 Wild type
How it was run: as §1

[24] = system: NCI-H1703; details: Homo sapiens, Lung, TP53 Mutant
How it was run: as §1

[25] = system: NCI-H508; details: Homo sapiens, Intestine, large, caecum, TP53 Mutant
How it was run: as §1

[26] = system: NCI-H716; details: Homo sapiens, Intestine, large, caecum, TP53 Mutant
How it was run: as §1

[27] = system: NCI-H929; details: Homo sapiens, Lymphocyte B, bone marrow, TP53 Wild type
How it was run: as §1

[28] = system: PC-10; details: Homo sapiens, PC10, Lung, TP53 Mutant
How it was run: as §1

[29] = system: PC-1; details: Homo sapiens, tissue null, TP53 Wild type
How it was run: as §1

[30] = system: PC-6; details: Homo sapiens, Lung, TP53 Wild type
How it was run: as §1

[31] = system: Ramos; details: Homo sapiens, Lymphocyte B, TP53 Wild type
How it was run: as §1

[32] = system: SK-N-DZ; details: Homo sapiens, Brain, TP53 Mutant
How it was run: as §1

[33] = system: SK-OV-3; details: Homo sapiens, Ovary, TP53 Mutant
How it was run: as §1

[34] = system: SUM-44PE; details: Homo sapiens, Breast, TP53 Wild type
How it was run: as §1

[35] = system: SW620; details: Homo sapiens, SW-620, Intestine, large, colon, TP53 Mutant
How it was run: as §1

[36] = system: U-937; details: Homo sapiens, Pleura, TP53 Mutant
How it was run: as §1

## CCOc1cc(C(C)(C)C)ccc1C1=N[C@@](C)(c2ccc(Cl)cc2)[C@@](C)(c2ccc(Cl)cc2)N1C(=O)N1CCN(CCCS(C)(=O)=O)CC1 [COMPOUND A]
[1]
  IC50: 17 µM
[2]
  IC50: 19 µM
[3]
  IC50: 9.3 µM
[4]
  IC50: 9.6 µM
[5]
  IC50: 9 µM
[6]
  IC50: 12 µM
[7]
  IC50: 16 µM
[8]
  IC50: 0.5 µM
[9]
  IC50: 2.2 µM
[10]
  IC50: 4.6 µM
[11]; HepG2, HepG2, Liver, TP53 Wild type
  IC50: 0.18 µM
[11]; HepG2, HepG2 cells
  IC50: 0.2 µM
[12]
  IC50: 17 µM
[13]
  IC50: 20 µM
[14]
  IC50: 16 µM
[15]
  IC50: 12 µM
[16]
  IC50: 5.3 µM
[17]
  IC50: 9 µM
[18]
  IC50: 4.4 µM
[19]; MC/CAR cells
  IC50: 0.7 µM
[19]; MC/CAR, Lymphocyte B, peripheral blood, TP53 Wild type
  IC50: 0.69 µM
[20]
  IC50: 1.4 µM
[21]
  IC50: 20 µM
[22]
  IC50: 19 µM
[23]
  IC50: 13 µM
[24]
  IC50: 9.1 µM
[25]
  IC50: 1.2 µM
[26]
  IC50: 13 µM
[27]
  IC50: 0.3 µM
[28]
  IC50: 14 µM
[29]
  IC50: 1.3 µM
[30]
  IC50: 8.2 µM
[31]
  IC50: 8.8 µM
[32]
  IC50: 5.7 µM
[33]
  IC50: 17 µM
[34]
  IC50: 3 µM
[35]
  IC50: 9.8 µM
[36]
  IC50: 5.2 µM
